The text below walks through data of patent US12404249B2, “Heterocyclic derivatives and use thereof” (C&C RESEARCH LABORATORIES, priority 2018, dated 2025).

The term IC50 denotes the point on the concentration scale where inhibition reaches its midpoint.

Assay [1] has as its system prostate cancer cell line (LNCap). The assay is described as follows: Cell growth inhibition assay (Celltiter Glo). Format: cell-based. The conditions noted are these: Homo sapiens, LNCap cells, 120 hours incubation. The protocol:
Cancer cell inhibitory effects by the compounds of the Examples were evaluated as follows. The prostate cancer cell line (LNCap) used was cultured under the condition according to the vendor's recommendation. LNCap was dispensed into a 96-well plate at 10,000 cells/well. After incubation under the condition of 37° C. and 5% CO2 for 24 hours, the Example compounds of 50 mM DMSO stock were diluted to various concentrations and treated to the 96-well plate containing cells. After treatment of the Example compounds, LNCap cells were incubated in an incubator (37° C., 5% CO2) for 120 hours. After each incubation time, the 96-well plate was observed under a microscope to record the presence or absence of drug precipitation and specificities, and the 96-well plate was kept at room temperature for 30 minutes. Then, after addition of 20 μL of Celltiter Glo solution, the 96-well plate was well shaken for 30 minutes. The growth inhibitory activity was measured on microLUMA LB96P (BERTHOLD) instrument using Glo-vial protocol. As a negative control, a 96 well-plate in which culture medium was added but cells were not plated was used. As a positive control, a 96 well-plate in which cells were plated and 0.1% DMSO instead of drugs was added was used. The results of growth inhibitory effects of the Example compounds on prostate cancer cell line are represented in Table 2.
In general terms: Cellular ATP, detected with luciferase, serves as a proxy for viable cell number.

In another assay the target is T1, STAT3 (Homo sapiens, UniProt P40763).
T1 construct: endogenous in cells; host or cells: LNCaP (human prostate cancer) stably carrying pSTAT3-TA-luc reporter plasmid
The assay is described as follows: STAT3 activation inhibition assay (reporter gene assay, LNcaP stable cell line, IL-6 stimulated). The class given is cell-based. The conditions noted are these: LNcaP stable cell line [plasmid STAT3-TA-luc], IL-6 10 ng/mL, 48 hours, luciferase activity; read-out: IC50 (μM) pSTAT3. How it is done: Cancer cell lines used for evaluating the compounds of the Examples were purchased from ATCC (American Type Culture Collection) or KCLB (Korean Cell Line Bank), and cultured according to the vendor's recommendation. The human prostate cancer cell line stably expressing the STAT3 promoter (LNcaP stable cell line [plasmid STAT3-TA-luc])—which was prepared to evaluate the inhibitory effect of the compounds of the Examples against dimerization of STAT3—was cultured in RPMI1640 (Cat no. 11875, Gibco), 10% fetal bovine serum (Cat no. SH30071.03, Hyclone) and 150 μg/mL G418 solution (Cat no. 04 727 894 001, Roche).
The reporter gene assay of LNcap stable cell line was carried out by the use of RPMI 1640 medium containing 3% DCC-FBS (without G-418). The cell line was dispensed into two (2) white 96-well plates at 30,000 cells/well/50 μL. The cell line was incubated for 24 hours under the condition of 37° C. and 5% CO2, and then the Example compounds of 50 mM DMSO stock were diluted to various concentrations and treated to two (2) white 96-well plates containing cells. Then, IL-6 was treated to a final concentration of 10 ng/mL. After the treatment of Example compounds and IL-6, the cells were cultured for 48 hours under the condition of 37° C. and 5% CO2. After 48 hours, the 96-well plates were observed under a microscope to record the presence or absence of drug precipitation and specificities, and the 96-well plates were kept at room temperature for 30 minutes. Then, in the case of the first 96-well plate, the culture medium on the plate was removed to measure the luciferase activity, and treated with passive lysis buffer at 20 µL/well and shaken for 30 minutes. The luciferase activity was measured on microLUMA LB96P (BERTHOLD) or Centro XS LB 960 (BERTHOLD) instrument using Luciferase assay system (Cat No. E1501, Promega Corporation). In the case of the second 96-well plate, 20 μL of Glo-mix solution was added to measure cytotoxicity by the compounds of the Examples, and the plate was well shaken for 10 minutes and analyzed on microLUMA LB96P (BERTHOLD) instrument using Glo-vial protocol. As a negative control, a 96 well-plate in which culture medium was added but cells were not plated was used. As a positive control, a 96 well-plate in which cells were plated and 0.1% DMSO and culture medium containing stimulation were added was used.
The results of evaluating the inhibitory effects of the compounds of the Examples against dimerization of STAT3 and STAT1 via STAT3 and STAT1 reporter gene assay are represented in Table 1.

T1 sequence (P40763 whole entry): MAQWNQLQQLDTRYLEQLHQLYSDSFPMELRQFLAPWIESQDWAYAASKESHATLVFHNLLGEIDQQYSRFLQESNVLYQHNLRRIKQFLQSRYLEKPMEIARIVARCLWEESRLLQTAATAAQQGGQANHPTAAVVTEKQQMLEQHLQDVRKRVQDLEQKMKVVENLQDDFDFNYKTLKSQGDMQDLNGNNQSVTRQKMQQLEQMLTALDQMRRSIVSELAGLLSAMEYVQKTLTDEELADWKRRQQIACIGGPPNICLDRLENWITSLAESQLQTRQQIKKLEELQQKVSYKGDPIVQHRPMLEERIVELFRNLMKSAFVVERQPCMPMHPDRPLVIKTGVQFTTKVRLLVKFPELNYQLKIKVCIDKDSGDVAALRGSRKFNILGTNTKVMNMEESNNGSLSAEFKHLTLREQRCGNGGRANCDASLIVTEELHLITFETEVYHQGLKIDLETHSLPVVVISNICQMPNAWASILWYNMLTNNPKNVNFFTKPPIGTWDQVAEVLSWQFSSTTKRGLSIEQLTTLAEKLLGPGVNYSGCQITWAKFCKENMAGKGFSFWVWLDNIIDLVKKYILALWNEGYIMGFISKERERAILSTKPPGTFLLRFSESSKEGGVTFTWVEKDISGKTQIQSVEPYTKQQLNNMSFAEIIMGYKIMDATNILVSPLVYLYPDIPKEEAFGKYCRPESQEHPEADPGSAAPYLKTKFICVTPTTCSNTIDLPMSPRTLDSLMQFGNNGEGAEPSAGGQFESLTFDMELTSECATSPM

On to `O=[N+]([O-])c1ccc(CCNc2cc(Cl)nc3ccccc23)cc1` [Example 1, 2-chloro-N-(4-nitrophenethyl)quinolin-4-amine], for which the values for the IC50 (in assay [1]; at STAT3) were 3.5 µM and 2.6 µM, respectively.
In the same order, the values of `CS(=O)(=O)N(O)c1ccc(CCNc2cc(Cl)nc3ccccc23)cc1` [Example 2, N-(4-(2-((2-chloroquinolin-4-yl)amino)ethyl)phenyl)-N-hydroxymethanesulfonamide] are 0.81 µM and 0.85 µM.
Take `NS(=O)(=O)c1ccc(CCNc2cc(Cl)nc3ccccc23)cc1` [Example 3, 4-(2-((2-chloroquinolin-4-yl)amino)ethyl)benzenesulfonamide]: the concentration for half-maximal inhibition (IC50) in assay [1] came to 5.1 µM; at STAT3, 10.5 µM.
Take `NS(=O)(=O)c1ccc(CCN(CCc2ccccc2)c2cc(Cl)nc3ccccc23)cc1` [Example 4, 4-(2-((2-chloroquinolin-4-yl)(phenethyl)amino)ethyl)benzenesulfonamide]: the IC50 in assay [1] is over 50 µM; on STAT3, 20.9 µM.
The like results for `Cc1cc(NCCc2ccc([N+](=O)[O-])cc2)c2ccccc2n1` [Example 5, 2-methyl-N-(4-nitrophenethyl)quinolin-4-amine] were, in that order, 47.3 µM and 38.1 µM.
In the case of `Nc1ccc(CCNc2cc(Cl)nc3ccccc23)cc1` [Example 6, N-(4-aminophenethyl)-2-chloroquinolin-4-amine], the concentration for half-maximal inhibition (IC50) was determined as 0.69 µM in assay [1] and 0.71 µM at STAT3.
Consider `CS(=O)(=O)Nc1ccc(CCNc2cc(Cl)nc3ccccc23)cc1` [Example 7, N-(4-(2-((2-chloroquinolin-4-yl)amino)ethyl)phenyl)methanesulfonamide], for which the values for the IC50 (in assay [1]; on STAT3) were 0.078 µM and 0.038 µM, respectively.
As to `CCc1cccc2c(NCCc3ccc([N+](=O)[O-])cc3)cc(Cl)nc12` [Example 8, 2-chloro-8-ethyl-N-(4-nitrophenethyl)quinolin-4-amine], the IC50 in assay [1] came out at 16 µM; on STAT3, 7.8 µM.
In the same order, the values of `COc1ccc2nc(Cl)cc(NCCc3ccc([N+](=O)[O-])cc3)c2c1` [Example 9, 2-chloro-6-methoxy-N-(4-nitrophenethyl)quinolin-4-amine] are 7.7 µM and 3 µM.
Consider `COc1cccc2c(NCCc3ccc([N+](=O)[O-])cc3)cc(Cl)nc12` [Example 10, 2-chloro-8-methoxy-N-(4-nitrophenethyl)quinolin-4-amine], for which the IC50 in assay [1] worked out at 2.6 µM; on STAT3 it was 3.9 µM.
The like results for `COc1ccc2nc(Cl)cc(NCCc3ccc(NS(C)(=O)=O)cc3)c2c1` [Example 11, N-(4-(2-((2-chloro-6-methoxyquinolin-4-yl)amino)ethyl)phenyl)methanesulfonamide] were, in that order, 2.6 µM and 1.6 µM.
The like results for `O=[N+]([O-])c1ccc(CCNc2cc(Cl)nc3cc(OC(F)(F)F)ccc23)cc1` [Example 12, 2-chloro-N-(4-nitrophenethyl)-7-(trifluoromethoxy)quinolin-4-amine] were, in that order, 9.3 µM and 5.8 µM.
The like results for `O=[N+]([O-])c1ccc(CCNc2cc(Cl)nc3cccc(OC(F)(F)F)c23)cc1` [Example 13, 2-chloro-N-(4-nitrophenethyl)-5-(trifluoromethoxy)quinolin-4-amine] were, in that order, 2.5 µM and 3.1 µM.
On to `O=[N+]([O-])c1ccc(CCNc2cc(Cl)nc3ccc(F)cc23)cc1` [Example 14, 2-chloro-6-fluoro-N-(4-nitrophenethyl)quinolin-4-amine], for which the results for the IC50 (in assay [1]; at STAT3) were 1.9 µM and 0.59 µM, respectively.
The like results for `Cc1cccc2c(NCCc3ccc([N+](=O)[O-])cc3)cc(Cl)nc12` [Example 15, 2-chloro-8-methyl-N-(4-nitrophenethyl)quinolin-4-amine] were, in that order, 1.6 µM and 3.1 µM.
As to `CCOC(=O)c1ccc2nc(Cl)cc(NCCc3ccc([N+](=O)[O-])cc3)c2c1` [Example 16, ethyl 2-chloro-4-((4-nitrophenethyl)amino)quinolin-6-carboxylate], the IC50 was 21.8 µM in assay [1] and over 50 µM on STAT3.
For `O=[N+]([O-])c1ccc(CCNc2ccnc3ccccc23)cc1` [Example 17, N-(4-nitrophenethyl)quinolin-4-amine], the IC50 in assay [1] was found to be 4.7 µM; at STAT3, 1.6 µM.
As to `O=[N+]([O-])c1ccc(CCNc2nc(Cl)nc3ccccc23)cc1` [Example 18, 2-chloro-N-(4-nitrophenethyl)quinazolin-4-amine], the IC50 is 0.48 µM in assay [1] and 0.21 µM at STAT3.
The like results for `O=[N+]([O-])c1ccc(CCNc2cc(Cl)nc3ccc(S(=O)(=O)NCCc4ccc([N+](=O)[O-])cc4)cc23)cc1` [Example 19, 2-chloro-N-(4-nitrophenethyl)-4-((4-nitrophenethyl)amino)quinolin-6-sulfonamide] were, in that order, 18.4 µM and over 50 µM.
In the same order, the values of `O=Nc1ccc(CCNc2cc(Cl)nc3ccccc23)cc1` [Example 20, 2-chloro-N-(4-nitrosophenethyl)quinolin-4-amine] are 0.74 µM and 0.75 µM.
Turning to `CS(=O)(=O)Nc1ccc(CCNc2ccnc3ccc(F)cc23)cc1` [Example 21, N-(4-(2-((6-fluoroquinolin-4-yl)amino)ethyl)phenyl)methanesulfonamide], the IC50 in assay [1] was found to be 2.4 µM; on STAT3, 2.3 µM.
Take `CS(=O)(=O)Nc1ccc(CCNc2cc(Cl)nc3ccc(F)cc23)cc1` [Example 22, N-(4-(2-((2-chloro-6-fluoroquinolin-4-yl)amino)ethyl)phenyl)methanesulfonamide]: the IC50 in assay [1] turned out to be 0.074 µM; at STAT3 it was 0.1 µM.
With `CS(=O)(=O)Nc1ccc(CCNc2nc(Cl)nc3ccccc23)cc1` [Example 23, N-(4-(2-((2-chloroquinazolin-4-yl)amino)ethyl)phenyl)methanesulfonamide], the values for the IC50 (in assay [1]; at STAT3) were 0.25 µM and 0.26 µM, respectively.
With `CS(=O)(=O)Nc1ccc(CCNc2cc(Cl)nc3cc(OC(F)(F)F)ccc23)cc1` [Example 24, N-(4-(2-((2-chloro-7-(trifluoromethoxy)quinolin-4-yl)amino)ethyl)phenyl)methanesulfonamide], the values for the IC50 (in assay [1]; at STAT3) were 6.2 µM and 4.1 µM, respectively.
For the compound `CS(=O)(=O)Nc1ccc(CCNc2ccnc3cc(OC(F)(F)F)ccc23)cc1` [Example 25, N-(4-(2-((7-(trifluoromethoxy)quinolin-4-yl)amino)ethyl)phenyl)methanesulfonamide], the IC50 in assay [1] turned out to be 9.6 µM; on STAT3, 1.9 µM.
In the same order, the values of `CS(=O)(=O)Nc1ccc(CCNc2cc(Cl)nc3cccc(OC(F)(F)F)c23)cc1` [Example 26, N-(4-(2-((2-chloro-5-(trifluoromethoxy)quinolin-4-yl)amino)ethyl)phenyl)methanesulfonamide] are 0.23 µM and 0.15 µM.
The like results for `CS(=O)(=O)Nc1ccc(CCNc2ccnc3cccc(OC(F)(F)F)c23)cc1` [Example 27, N-(4-(2-((5-(trifluoromethoxy)quinolin-4-yl)amino)ethyl)phenyl)methanesulfonamide] were, in that order, 0.14 µM and 0.14 µM.
In the same order, the values of `O=[N+]([O-])c1ccc(CCNc2cc(Cl)nc3ccc(N4CCOCC4)cc23)cc1` [Example 28, 2-chloro-6-morpholino-N-(4-nitrophenethyl)quinolin-4-amine 2,2,2-trifluoroacetate] are 44.1 µM and 32.3 µM.
